Data: patent US10981932B2, “Macrocyclic indole derivatives” (Bayer Aktiengesellschaft, priority 2016, dated 2021)
Structures can show the parent of a compound that is named as a salt. Where two headings read alike, the source gives them in different places.

Key:
MCL-1 = MCL-1 (Homo sapiens, UniProt Q07820); test: Protein-protein interaction assay MCL-1/Noxa BH3 peptide (MCL-1 assay), TR-FRET; type: binding; settings: MBP-MCL-1 / Noxa BH3-derived peptide, median
Procedure, shortened: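 MBP-MCL-1 (1 nM final) was preincubated 10 min at 22 °C with compounds (11 concentrations, 0.1 nM–20 μM, duplicates) in Tris pH 7 buffer with NaCl, KF, Tween-20, DTT and BGG. After 1 h at 22 °C in the dark plus overnight at 4 °C, anti-MBP Eu-cryptate/streptavidin-XL665 TR-FRET was read; IC50 came from a 4-parameter fit.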

SUDHL5 [1] = test: Induction of caspase-3/7 activity (Caspase-Glo 3/7), SUDHL5; type: cell-based; settings: caspase-3/7 induction, SUDHL5 cells, 3 h treatment, median
Procedure, shortened: (§1)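 Caspase-Glo 3/7 luminescence measured after 3 h compound exposure at 37 °C in SUDHL10 and SUDHL5 cells. EC50 values come from background-corrected signals, with curve bottom set to 1 and plateau set to maximal induction by the reference compound.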

SUDHL10 [2] = test: Induction of caspase-3/7 activity (Caspase-Glo 3/7), SUDHL10; type: cell-based; settings: caspase-3/7 induction, SUDHL10 cells, 3 h treatment, median
Procedure, shortened: as §1

SUDHL5 [3] = test: Anti-proliferative effect (CellTiter-Glo, 72 h), SUDHL5; type: cell-based; settings: SUDHL5 cells, antiproliferation, median, read-out: Antiproli SUDHL5 [M] (median)
Procedure, shortened: (§2)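 CellTiter-Glo luminescence readout of viability, taken on a time-zero plate at day 0 and on treated plates after 72 h incubation at 37 °C in a humidified incubator. Reagent incubation 10 min before reading.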

SUDHL10 [4] = test: Anti-proliferative effect (CellTiter-Glo, 72 h), SUDHL10; type: cell-based; settings: SUDHL10 cells, antiproliferation, median, read-out: Antiproli SUDHL10 [M] (median)
Protocol: Assessment of the Anti-Proliferative Effect of Compounds in Different Cell Lines
The impact of compounds on the proliferation of different cell lines was assessed using the CellTiter-Glo® Luminescent Cell Viability reagent from Promega (G7573). Of note, SUDHL10 and SUDHL5 (DLBCL), NCI-H929 (Multiple Myeloma), A2780 (ovarian carcinoma) as well as MV-4-11(AML) cells are sensitive to MCL-1 inhibition.
In parallel, cells were plated in a reference (day 0) plate for time zero determination.
Rim wells were excluded. The cells were incubated for 72 h hours in a humidified incubator at 37° C. The day 0 plate was measured by adding 30 μl/well of CTG solution (CellTiter-Glo® Luminescent Cell Viability reagent, Promega G7573) to time zero wells in the reference plate followed by a 10 minutes incubation and luminescence reading at 0.1 ms, using the PHERAstar FS microplate reader (BMG Labtech).
After 72 h incubation, the treated plates were measured in the same way as the day 0 plate mentioned above.

A2780 = test: Anti-proliferative effect (CellTiter-Glo, 72 h), A2780; type: cell-based; settings: A2780 cells, median, read-out: IC50 antiproliferation assay A2780 [M] (median)
Procedure, shortened: as §2

SUDHL5 [5] = test: Induction of cytotoxicity (CellTiter-Glo, 5 h), SUDHL5
SUDHL10 [6] = test: Induction of cytotoxicity (CellTiter-Glo, 5 h), SUDHL10
[7] = Homo sapiens, SU-DHL-5, 72 h, 72 h incubation
[8] = Homo sapiens, SU-DHL10, 72 h, 72 h incubation
[9] = Homo sapiens, SU-DHL-5, 5 h, read-out: Cytotox SUDHL5 [M] (median), SUDHL5 cells, cytotoxicity induction, CellTiter-Glo, 5 h incubation, median
[10] = Homo sapiens, SU-DHL10, 5 h, read-out: Cytotox SUDHL10 [M] (median), SUDHL10 cells, cytotoxicity induction, CellTiter-Glo, 5 h incubation, median
[11] = read-out: Cytotox SUDHL5 [M] (median), SUDHL5 cells, cytotoxicity induction, CellTiter-Glo, 5 h incubation, median
[12] = read-out: Cytotox SUDHL10 [M] (median), SUDHL10 cells, cytotoxicity induction, CellTiter-Glo, 5 h incubation, median

Chain of MCL-1 (Q07820 whole entry): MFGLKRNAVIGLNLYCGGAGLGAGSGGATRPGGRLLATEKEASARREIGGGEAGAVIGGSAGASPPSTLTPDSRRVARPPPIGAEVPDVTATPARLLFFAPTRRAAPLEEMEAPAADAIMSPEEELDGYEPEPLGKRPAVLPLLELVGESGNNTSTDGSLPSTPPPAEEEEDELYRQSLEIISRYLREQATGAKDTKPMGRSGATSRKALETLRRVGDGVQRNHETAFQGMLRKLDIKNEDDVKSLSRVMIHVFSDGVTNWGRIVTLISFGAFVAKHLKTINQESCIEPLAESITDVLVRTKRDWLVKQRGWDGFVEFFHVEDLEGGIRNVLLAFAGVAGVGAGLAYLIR

IC50 (MCL-1) [µM] | EC50 (SUDHL5 [1]; Homo sapiens, SU-DHL-5, 3 h) [µM] | EC50 (SUDHL10 [2]; Homo sapiens, SU-DHL10, 3 h) [µM] | IC50 (SUDHL5 [3]; [7]) [M] | IC50 (SUDHL10 [4]; [8]) [M] | IC50 (A2780; Homo sapiens, A2780, 72 h) [M] | EC50 (SUDHL5 [1]) [µM] | IC50 (SUDHL5 [3]; 72 h) [M] | IC50 (SUDHL10 [4]; 72 h) [M] | IC50 (SUDHL5 [3]; 72 h incubation) [M] | EC50 (SUDHL10 [2]) [µM] | IC50 (A2780) [M] | SMILES | IC50 (SUDHL5 [5]; [9]) [M] | IC50 (SUDHL10 [6]; [10]) [M] | IC50 (SUDHL5 [5]; read-out: Cytotox SUDHL5 [M] (median), SUDHL5 cells, cytotoxicity induction, CellTiter-Glo, 5 h, median) | IC50 (SUDHL10 [6]; Homo sapiens, SU-DHL10, 5 h, read-out: Cytotox SUDHL10 [M] (median), SUDHL10 cells, cytotoxicity induction, CellTiter-Glo, 5 h, median) | IC50 (SUDHL5 [5]; [11]) [M] | IC50 (SUDHL10 [6]; [12]) [M]
0.0043 | 5.2 | 12.8 | 8.47e-06 | 1.08e-05 | 2.11e-05 |  |  |  |  |  |  | COCc1c2c(nn1C)COCCCCn1c(C(=O)O)c(CCCOc3cccc4ccccc34)c3cccc-2c31 (racemic) [Example 099, (rac)-3-(methoxymethyl)-2-methyl-7-[3-(naphthalen-1-yloxy)propyl]-2,10,11,12,13,15-hexahydropyrazolo[4′,3′:9,10][1,6]oxazacycloundecino[8,7,6-hi]indole-8-carboxylic Acid] | 3.86e-06 | 1.75e-05 |  |  |  | 
0.0827 | > 33 | > 33 | 2.74e-05 | 1.15e-05 | 2.09e-05 |  |  |  |  |  |  | Cc1nn(CC(F)(F)F)c2c1-c1cccc3c(CCCOc4cccc5ccccc45)c(C(=O)O)n(c13)C/C=C\COC2 (racemic) [Example 098, (rac)-(11Z)-3-methyl-7-[3-(naphthalen-1-yloxy)propyl]-12-(2,2,2-trifluoroethyl)-1,10,13,15-tetrahydropyrazolo[4′,3′:9,10][1,6]oxazacycloundecino[8,7,6-hi]indole-8-carboxylic Acid] | 2.94e-05 | > 3.3e-05 |  |  |  | 
0.0226 |  |  |  |  | 1.41e-05 | 13.8 | 5.43e-06 | 9.36e-06 |  |  |  | COc1ccc(OCc2nn(C)c3c2-c2cccc4c(CCCOc5cccc6ccccc56)c(C(=O)O)n(c24)CCCCOC3)cc1 (single isomer, unassigned; enantiomer 1) [Example 320, 3-[(4-methoxyphenoxy)methyl]-1-methyl-7-[3-(naphthalen-1-yloxy)propyl]-1,10,11,12,13,15-hexahydropyrazolo[4′,3′:9,10][1,6]oxazacycloundecino[8,7,6-hi]indole-8-carboxylic Acid-N-ethylethanamine Salt (Enantiomer 1)] |  |  | 1.1e-05 | 2.29e-05 |  | 
0.00427 | 2.53 | 8.57 | 4.3e-06 | 7.54e-06 |  |  |  |  |  |  |  | CCc1c2c(nn1CCN1CCOCC1)COCCCCn1c(C(=O)O)c(CCCOc3cccc4ccccc34)c3cccc-2c31 (racemic) [Example 201, (rac)-3-ethyl-2-[2-(morpholin-4-yl)ethyl]-7-[3-(naphthalen-1-yloxy)propyl]-2,10,11,12,13,15-hexahydropyrazolo[4′,3′:9,10][1,6]oxazacycloundecino[8,7,6-hi]indole-8-carboxylic Acid] | 2.57e-06 | 7.98e-06 |  |  |  | 
0.00778 | 7.09 | 16.5 | 1.11e-05 |  | 1.43e-05 |  |  |  |  |  |  | Cc1c2c(nn1CCN(C)C)COCCCCn1c(C(=O)O)c(CCCOc3cccc4ccccc34)c3cccc-2c31 (racemic) [Example 243, (rac)-2-[2-(dimethylamino)ethyl]-3-methy-7-[3-(naphthalen-1-yloxy)propyl]-2,10,11,12,13,15-hexahydropyrazolo[4′,3′:9,10][1,6]oxazacycloundecino[8,7,6-hi]indole-8-carboxylic Acid Trifluoroacetic Acid Salt] | 6.44e-06 | 1.46e-05 |  |  |  | 
0.00761 | > 33 | 28 | 2.11e-05 |  | > 3.3e-05 |  |  |  |  |  |  | Cn1nc(CCN2CCOCC2)c2c1COCCCCn1c(C(=O)O)c(CCCOc3cccc4ccccc34)c3cccc-2c31 (racemic) [Example 150, (rac)-1-methyl-3-[2-(morpholin-4-yl)ethyl]-7-[3-(naphthalen-1-yloxy)propyl]-1,10,11,12,13,15-hexahydropyrazolo[4′,3′:9,10][1,6]oxazacycloundecino[8,7,6-hi]indole-8-carboxylic Acid] | 2.69e-05 | > 3.3e-05 |  |  |  | 
0.0115 |  | 17.5 |  |  | 3.14e-05 | 4.98 |  |  | 1.12e-05 |  |  | Cc1c2c(nn1C)COCCCn1c(C(=O)O)c(CCCOc3cccc4ccccc34)c3cccc-2c31 (single isomer, unassigned; enantiomer 1) [Example 064, 10,11-dimethyl-1-[3-(naphthalen-1-yloxy)propyl]-5,6,8,10-tetrahydro-4H-pyrazolo[4′,3′:8,9][1,5]oxazecino[7,6,5-h]indole-2-carboxylic acid-N-ethylethanamine Salt (Enantiomer 1)] |  | 2.59e-05 |  |  | 7.53e-06 | 
0.00761 |  | 23.2 |  |  | 2.55e-05 | 5.35 |  |  | 6.96e-08 |  |  | Cc1nn(CC(F)(F)F)c2c1-c1cccc3c(CCCOc4cccc5c4CCCC5)c(C(=O)O)n(c13)CCCCOC2 (single isomer, unassigned; enantiomer 1) [Example 162, 3-methyl-7-[3-(5,6,7,8-tetrahydronaphthalen-1-yloxy)propyl]-1-(2,2,2-trifluoroethyl)-1,10,11,12,13,15-hexahydropyrazolo[4′,3′:9,10][1,6]oxazacycloundecino[8,7,6-hi]indole-8-carboxylic acid-N-ethylethanamine Salt (Enantiomer 1)] |  | 2.3e-05 |  |  | 8.92e-06 | 
0.048 |  |  |  |  |  | > 33 |  |  | 8.34e-06 | > 33 | 2.25e-05 | CCc1c2c(nn1C)COCCCCn1c(C(=O)O)c(CCCOc3cccc4ccccc34)c3ccc(C)c-2c31 (single isomer, unassigned; enantiomer 2) [Example 155, 3-Ethyl-2,4-dimethyl-7-[3-(1-naphthyloxy)propyl]-2,10,11,12,13,15-hexahydropyrazolo[4′,3′:9,10][1,6]oxazacycloundecino[8,7,6-hi]indole-8-carboxylic acid-N-ethylethanamine Salt (Enantiomer 2)] |  |  |  |  | > 3.3e-05 | > 3.3e-05
0.0388 |  |  |  |  |  | 22.6 |  |  | 4.2e-06 | > 33 | 7.54e-06 | CCc1nn(C)c2c1-c1c(C)ccc3c(C(C)CCOc4cccc5cc(F)ccc45)c(C(=O)O)n(c13)CCCCOC2 (single isomer, unassigned) [Example 262, 3-ethyl-7-{4-[(6-fluoronaphthalen-1-yl)oxy]butan-2-yl}-1,4-dimethyl-1,10,11,12,13,15-hexahydropyrazolo[4′,3′:9,10][1,6]oxazacycloundecino[8,7,6-hi]indole-8-carboxylic Acid] |  |  |  |  | 1.67e-05 | 2.15e-05
0.0107 | 23.3 | > 33 | > 3.3e-05 |  | > 3.3e-05 |  |  |  |  |  |  | COCc1nn(C)c2c1-c1cccc3c(CCCOc4cccc5ccccc45)c(C(=O)O)n(c13)CCCCCOC2 (racemic) [Example 177, (rac)-3-(methoxymethyl)-1-methyl-7-[3-(naphthalen-1-yloxy)propyl]-1,11,12,13,14,16-hexahydro-10H-pyrazolo[3′,4′:3,4][1,7]oxazacyclododecino[5,6,7-hi]indole-8-carboxylic Acid] | 2.14e-05 | > 3.3e-05 |  |  |  | 
